Measured values taken from US10213444B2, “Composition and method for treating bipolar disorder” (LAUREATE INSTITUTE FOR BRAIN RESEARCH, priority 2014, dated 2019).

Columns and labels:
[1] = test system: subjects with bipolar disorder during a current major depressive episode (bipolar depression); experiment: Double-blind, placebo-controlled 2×2 trial in bipolar depression (MADRS, YMRS); assay type: in vivo, human; conditions: LOCF; for Percentage of female responders: female patients; for Percentage of female responders / Percentage of responders (BMI >30): >50% reduction in MADRS; for Percentage of responders (BMI >30): subset BMI >30; for Percentage of responders: total sample, response = greater than 50% reduction in MADRS baseline to final, 6 weeks, ASA 81 mg b.i.d., minocycline 100 mg b.i.d. p.o.
Procedure: (§1) The above pharmaceutical compound comprising minocycline and acetylsalicylic acid was tested using a double-blind, placebo-controlled trial with a 2×2design. The study examined subjects with bipolar disorder during a current major depressive episode (“bipolar depression”). Most subjects were either partial responders to existing antidepressant and/or mood stabilizing treatments or were treatment resistant. The subjects were randomized to receive either (1) placebo-minocycline plus placebo-acetylsalicylic acid, or (2) active-minocycline (100 mg b.i.d.) plus placebo-acetylsalicylic acid, or (3) placebo-minocycline plus active-acetylsalicylic acid (81 mg b.i.d.), or (4) active-minocycline (100 mg b.i.d.) plus active-acetylsalicylic acid (81 mg b.i.d.) (FIG. 1). Clinical symptoms of depression and mania were measured using the Montgomery-Asberg Depression Rating Scale (MADRS) and the Young Mania Rating Scale (YMRS), respectively.
For the data produced below, the treatment method for administering the combination of each composition, including the active-minocycline and active-acetylsalicylic acid, entailed the following steps: administer ASA 81 mg p.o b.i.d and minocycline 100 mg p.o b.i.d. As depicted in FIG. 1, each session number (total of 7) is encircled, with the timing between sessions indicated in weeks with a 2business day window on either side of visit target date to complete the visit. Session 1(far left) is the baseline and session 7(far right) is the study end. The study duration is 6weeks.
Of the 99patients who were randomized, 87started treatment and completed a sufficient number of sessions (at least 3weeks of treatment) to be included in the last-observation carried forward analysis (LOCF) shown below. For these 87subjects, 79completed the entire study. Eight subjects dropped-out early, all from the active treatment groups—4from minocycline+ASA, 3from ASA+placebo, and one from minocycline+placebo. Since existing anti-depressant medications generally begin to exert antidepressant effects within 3weeks, in this trial, data from patients with at least 3weeks of treatment were including in the LOCF analysis.
Response to medication/placebo was defined as a greater than 50% reduction in MADRS scores between the baseline and final assessment. Table 2provides results reflecting percentage of treatment responders by group, and relative risk reduction (RRR), absolute risk reduction (ARR) and, number needed to treat (NNT) for the combination ASA/minocycline treatment.

[2] = test system: patients with major depressive disorder; experiment: Same trial, subset of patients with major depressive disorder (unipolar depression); assay type: in vivo, human; conditions: subset with major depressive disorder (n=10)
Procedure: as §1
In the subset of patients with major depressive disorder (n=10), 75% responded to the combination of minocycline+ASA (3/4) compared to 50% response in the minocycline+placebo group (1/2), and 0% in the ASA+placebo group (0/3). The data document that the combination of minocycline and ASA has effectiveness for the treatment of additional forms of non-bipolar depression such as major depressive disorder and dysthymia. […]

[3] = test system: individuals receiving lithium treatment (bipolar symptoms); conditions: cited from earlier work
[4] = administered orally; cited from earlier work
[5] = administered orally; cited from earlier work; remark: listed apart in the source

Structure (SMILES) | Percentage of female responders [1] [%] | Percentage of responders (BMI >30) [1] [%] | Percentage of responders [1] [%] | percent responded (MADRS response) [2] [%] | effect on medication events ([3]; high-dose aspirin or other anti-inflammatory classes added to lithium treatment) | less likely to have a medication event ([3]; low-dose (≤81 to 162 mg/day) aspirin added to lithium treatment) [%] | brain to blood ratio [4] | level within brain as percent of level within blood plasma [4] [%] | level within cerebrospinal fluid as percent of plasma concentrations [5]
CC(=O)Oc1ccccc1C(=O)O [ASA, acetylsalicylic acid] | 50 | 44 | 56 | 0 | increase in medication events | 17 | 0.32 | 32 | 
CN(C)c1ccc(O)c2c1C[C@H]1C[C@H]3[C@H](N(C)C)C(O)=C(C(N)=O)C(=O)[C@@]3(O)C(O)=C1C2=O [minocycline] | 55 | 38 | 38 | 50 |  |  |  |  | 11-56%
